# Measured values taken from patent US12617779B2, “Self degradation-type CDK9 inhibitor prodrug and liposome encapsulating same” (Sumitomo Pharma Co., Ltd., priority 2021, dated 2026).
# Legend:
# [1] = Stability evaluation of solution formulation (Experimental Example 2); format: physicochemical; conditions: for Stability / conversion to Alvocidib in solution formulation at pH 3: pH 3, 5° C.; for Stability / conversion to Alvocidib in solution formulation at pH 3 / Stability / conversion to Alvocidib in solution formulation at pH 4: up to 4 weeks; for Stability / conversion to Alvocidib in solution formulation at pH 4: pH 4, 5° C.
# Procedure: For Example 1, Example 2, Example 5, Example 6, Comparative Example 13 and Comparative Example 14, the attrition rate of the test compound and the conversion rate of the test compound to Alvocidib in a solution formulation were calculated by the following method.
# Example 1, Example 2, Example 5, Example 6, Comparative Example 13 and Comparative Example 14 were each added to buffer solutions adjusted to pH 3.0, 4.0 and 5.0, respectively, at a concentration of 0.1 mg/mL, and left at 5° C. After 0, 1, 2 and 4 weeks, the residual rates of the compounds of Example 1, Example 2, […], Comparative Example 13 and Comparative Example 14 and the production rate of Alvocidib were determined by HPLC.
# The buffer solutions used at each pH are as follows. • pH 3.0: 5 mM tartrate buffer solution/10% sucrose solution (pH 3.0) • pH 4.0: 5 mM tartrate buffer solution/10% sucrose solution (pH 4.0) • pH 5.0: 5 mM tartrate buffer solution/10% sucrose solution (pH 5.0)
# The measurement conditions for HPLC are as follows.
# • column: Acquity UPLC BEH C18, 1.7 um, 50×2.1 mm • column temperature: 40° C. • mobile phase: • A: water containing 0.1% trifluoroacetic acid • B: acetonitrile • A/B (min): • 80/20(0)→75/25(3)→0/100(3.5)→0/100(4)→80/20(4.01)→80/20(5) • flow rate: 0.8 mL/min • detection: ultraviolet visible detector, measurement wavelength 254 nm • injection: 3 μL
# A673 cells = assay: Drug efficacy evaluation test using tumor-bearing mice transplanted with A673 cells (Experimental Example 8); format: in vivo, BALB/c mice; conditions: liposome formulation, tail vein, 50 mg/kg twice a week
# Procedure: The liposome formulation encapsulating the compound of the present disclosure was treated and evaluated for anti-tumor effect and weight loss.
# The liposome formulations were prepared as follows. The liposomes encapsulating the compounds of Example 1, Example 2, Example 5 and Example 6 were prepared in the same manner as in Experimental Example 4, respectively. The liposome outer solution was replaced with 10 mM tartrate buffer solution/10% sucrose solution (pH4.0) using a dialysis cassette (Slide-A-Lyzer G2 Dialysis Cassettes 20K MWCO, manufactured by Thermo Scientific), followed by filtration through a 0.22 μm membrane filter.
# A673 cells (ATCC) were intradermally transplanted into 5-week-old BALB/c mice (CAnN.Cg-Foxnlnu/CrlCrlj, female, Charles River, Japan) around the ventral region at 3×10^6 cells/mouse. After confirming the engraftment of A673 cells 6 days after transplantation, they were divided into groups based on tumor diameter and body weight, and liposome formulations encapsulating Example 1, Example 2, Example 5 and Example 6 were administered through the tail vein at dose of 50 mg/kg twice a week, respectively. […] The tumor volume was measured over time from the start of administration, and the tumor volume reduction effect due to compound administration was evaluated. The tumor volume was calculated by the following formula using the short and long diameters of the tumor measured with an electronic caliper (Mitutoyo). For comparison in this test, an empty liposome solution prepared in the same manner as in Experimental Example 1 was used.
# (§1) The anti-tumor effect was evaluated by comparing the control group administered with the empty liposome solution and the administration group of the compound of the present disclosure, and calculating T/C by the following formula.
# EMT6 cells = assay: Drug efficacy evaluation test using tumor-bearing mice transplanted with EMT6 cells (Experimental Example 7); format: in vivo, BALB/c mice; conditions: liposome formulation, tail vein, 25 mg/kg and 50 mg/kg twice a week
# Procedure: The liposome formulation encapsulating the compound of the present disclosure was treated and evaluated for anti-tumor effect.
# The liposome formulations were prepared as follows. The liposomes encapsulating the compounds of Example 3 and Example 4 were prepared in the same manner as in Experimental Example 4, respectively. The liposome outer solution was replaced with 10 mM tartrate buffer solution/10% sucrose solution (pH 4) using Sephadex G-25 column (PD-10, manufactured by GE Healthcare), followed by concentration by an ultrafiltration filter (AmiconUltra, 100K, 15 mL, manufactured by Merck), and filtration through a 0.22 μm membrane filter.
# EMT6 cells (ATCC) were intradermally transplanted into 5-week-old BALB/c mice (BALB/cAnNCrlCrlj, female, Charles River, Japan) around the ventral region at 5×10^5 cells/mouse. […] The tumor volume was measured over time from the start of administration, and the tumor volume reduction effect due to compound administration was evaluated. The tumor volume was calculated by the following formula using the short and long diameters of the tumor measured with an electronic caliper (Mitutoyo). […]
# as §1
# [2] = solution formulation, pH3.0, 0 week
# [3] = solution formulation, pH3.0, 1 week
# [4] = solution formulation, pH3.0, 2 week
# [5] = solution formulation, pH3.0, 4 week
# [6] = solution formulation, pH4.0, 0 week
# [7] = solution formulation, pH4.0, 1 week
# [8] = solution formulation, pH4.0, 2 week
# [9] = solution formulation, pH4.0, 4 week
# [10] = solution formulation, pH5.0, 0 week
# [11] = solution formulation, pH5.0, 1 week
# [12] = solution formulation, pH5.0, 2 week
# [13] = solution formulation, pH5.0, 4 week
SMILES,Stability / conversion to Alvocidib in solution formulation at pH 3 [1],Stability / conversion to Alvocidib in solution formulation at pH 4 [1],"Production rate of Alvocidib [1, 2]","Production rate of Alvocidib [1, 3]","Production rate of Alvocidib [1, 4]","Production rate of Alvocidib [1, 5]","Production rate of Alvocidib [1, 6]","Production rate of Alvocidib [1, 7]","Production rate of Alvocidib [1, 8]","Production rate of Alvocidib [1, 9]","Production rate of Alvocidib [1, 10]","Production rate of Alvocidib [1, 11]","Production rate of Alvocidib [1, 12]","Production rate of Alvocidib [1, 13]",Effect on tumor volume (A673 cells),"Residual rate [1, 2]","Residual rate [1, 3]","Residual rate [1, 4]","Residual rate [1, 5]","Residual rate [1, 6]",also measured
"CCN(C[C@@H]1CCCCN1)C(=O)Oc1cc(O)c2c(=O)cc(-c3ccccc3Cl)oc2c1[C@H]1CCN(C)C[C@H]1O [Example 1, 2-(2-chlorophenyl)-5-hydroxy-8-[(3S,4R)-3-hydroxy-1-methylpiperidin-4-yl]-4-oxo-4H-1-benzopyran-7-yl ethyl{[(2S)-piperidin-2-yl]methyl}carbamate ditrifluoroacetate]",stable,stable,0.0%,0.0%,0.1%,0.1%,0.0%,0.1%,0.2%,0.4%,0.1%,1.2%,1.9%,3.2%,significantly inhibited the increase in tumor volume,–,–,–,–,–,"Residual rate ([1]; solution formulation pH3.0, 0 week, 5° C., 0.1 mg/mL): 99.2%; Residual rate ([1]; solution formulation pH3.0, 1 week, 5° C., 0.1 mg/mL): 99.2%; Residual rate ([1]; solution formulation pH3.0, 2 weeks, 5° C., 0.1 mg/mL): 99.0%; Residual rate ([1]; solution formulation pH3.0, 4 weeks, 5° C., 0.1 mg/mL): 99.0%; Residual rate ([1]; solution formulation pH4.0, 0 week, 5° C., 0.1 mg/mL): 99.5%; Residual rate ([1]; solution formulation pH4.0, 1 week, 5° C., 0.1 mg/mL): 99.3%; Residual rate ([1]; solution formulation pH4.0, 2 weeks, 5° C., 0.1 mg/mL): 99.1%; Residual rate ([1]; solution formulation pH4.0, 4 weeks, 5° C., 0.1 mg/mL): 99.1%; Residual rate ([1]; solution formulation pH5.0, 0 week, 5° C., 0.1 mg/mL): 99.4%; Residual rate ([1]; solution formulation pH5.0, 1 week, 5° C., 0.1 mg/mL): 98.5%; Residual rate ([1]; solution formulation pH5.0, 2 weeks, 5° C., 0.1 mg/mL): 97.6%; Residual rate ([1]; solution formulation pH5.0, 4 weeks, 5° C., 0.1 mg/mL): 96.5%; Weight loss of 10% or more compared to the start of administration (A673 cells): without weight loss"
"CCN(C[C@H]1CCCCN1)C(=O)Oc1cc(O)c2c(=O)cc(-c3ccccc3Cl)oc2c1[C@H]1CCN(C)C[C@H]1O [Example 2, 2-(2-chlorophenyl)-5-hydroxy-8-[(3S,4R)-3-hydroxy-1-methylpiperidin-4-yl]-4-oxo-4H-1-benzopyran-7-yl ethyl{[(2R)-piperidin-2-yl]methyl}carbamate]",stable,stable,0.0%,0.0%,0.0%,0.1%,0.0%,0.1%,0.2%,0.3%,0.1%,1.1%,1.9%,3.1%,inhibited the increase in tumor volume,96.5%,96.5%,96.4%,96.5%,96.4%,"Residual rate [1, 7]: 96.5%; Residual rate [1, 8]: 96.4%; Residual rate [1, 9]: 96.4%; Residual rate [1, 10]: 96.4%; Residual rate [1, 11]: 95.5%; Residual rate [1, 12]: 94.5%; Residual rate [1, 13]: 93.0%; Weight loss of 10% or more compared to the start of administration (A673 cells): without weight loss"
"CN1CC[C@H](c2c(OC(=O)N(C)C[C@@H]3CCCCN3)cc(O)c3c(=O)cc(-c4ccccc4Cl)oc23)[C@H](O)C1 [Example 3, 2-(2-chlorophenyl)-5-hydroxy-8-[(3S,4R)-3-hydroxy-1-methylpiperidin-4-yl]-4-oxo-4H-1-benzopyran-7-yl methyl{[(2S)-piperidin-2-yl]methyl}carbamate]",–,–,–,–,–,–,–,–,–,–,–,–,–,–,–,–,–,–,–,–,Effect on tumor volume (EMT6 cells): significantly inhibited the increase in tumor volume
"CCCN(C[C@@H]1CCCCN1)C(=O)Oc1cc(O)c2c(=O)cc(-c3ccccc3Cl)oc2c1[C@H]1CCN(C)C[C@H]1O [Example 5, 2-(2-chlorophenyl)-5-hydroxy-8-[(3S,4R)-3-hydroxy-1-methylpiperidin-4-yl]-4-oxo-4H-1-benzopyran-7-yl {[(2S)-piperidin-2-yl]methyl}propylcarbamate]",stable,stable,0.2%,0.2%,0.3%,0.3%,0.2%,0.3%,0.4%,0.5%,0.4%,1.2%,2.1%,3.7%,inhibited the increase in tumor volume,98.2%,98.2%,98.1%,98.1%,98.2%,"Residual rate [1, 7]: 98.2%; Residual rate [1, 8]: 98.1%; Residual rate [1, 9]: 98.1%; Residual rate [1, 10]: 98.1%; Residual rate [1, 11]: 97.2%; Residual rate [1, 12]: 96.6%; Residual rate [1, 13]: 95.0%"
"CCCN(C[C@H]1CCCCN1)C(=O)Oc1cc(O)c2c(=O)cc(-c3ccccc3Cl)oc2c1[C@H]1CCN(C)C[C@H]1O [Example 6, 2-(2-chlorophenyl)-5-hydroxy-8-[(3S,4R)-3-hydroxy-1-methylpiperidin-4-yl]-4-oxo-4H-1-benzopyran-7-yl {[(2R)-piperidin-2-yl]methyl}propylcarbamate]",stable,stable,0.5%,0.5%,0.6%,0.6%,0.5%,0.7%,0.8%,0.9%,0.7%,1.6%,2.6%,4.6%,inhibited the increase in tumor volume,98.8%,98.8%,98.8%,98.8%,98.8%,"Residual rate [1, 7]: 98.7%; Residual rate [1, 8]: 98.5%; Residual rate [1, 9]: 98.2%; Residual rate [1, 10]: 98.7%; Residual rate [1, 11]: 97.0%; Residual rate [1, 12]: 95.3%; Residual rate [1, 13]: 91.8%"
